From ChEMBL document CHEMBL1136786, “2002 Medicinal Chemistry Division Award address: monoamine transporters and opioid receptors. Targets for addiction therapy” (J Med Chem, 2003) come the findings set out here.

For experiment [1], the system named is Rattus norvegicus. In words: Effective dose of compound required to produce maximal locomotor activity in rat by intraperitoneal administration. Format: functional. Conditions: ip.
For experiment [2], the species on record is Rattus norvegicus. In words: Half life of recovery for dopamine transporter in striatum was determined. Type of experiment: functional.
Experiment [3] relates to Rattus norvegicus. In words: Maximal locomotor activity of compound compared as a percent of cocaine's effect in rat by intraperitoneal administration. Format: functional.
For experiment [4], the species on record is Rattus norvegicus. In words: Degradation rate constant for dopamine transporter in nucleus accumbens was determined. Type of experiment: functional.
In experiment [5] the test system is Rattus norvegicus. In words: Effective dose of compound required to produce maximal locomotor activity in cocaine-trained rat by intraperitoneal administration. Type of experiment: functional. Conditions: ip.
Experiment [6] deals with Rattus norvegicus. In words: Time during which activity returned to baseline level in rat by intraperitoneal administration. Type of experiment: functional.
In experiment [7] the test system is Rattus norvegicus. In words: Time taken to produce maximal locomotor activity at 30 min period in rat by intraperitoneal administration. Type of experiment: functional.
Experiment [8] is filed under the species Rattus norvegicus. In words: Degradation rate constant for dopamine transporter in striatum was determined. Type of experiment: functional.
The species entered for experiment [9] is Rattus norvegicus. In words: Half life of recovery for dopamine transporter in nucleus accumbens was determined. Type of experiment: functional.
The subject of experiment [10] is Rattus norvegicus. In words: Half life of recovery for dopamine transporter in striatum after intraventricular injection of 100 nmol of compound. Type of experiment: functional, organism-based.
In experiment [11] the test system is Rattus norvegicus. In words: Half life of recovery for dopamine transporter in nucleus accumbens after intraventricular injection of 100 nmol of compound. Format: functional, organism-based.
Experiment [12] concerns the target Sodium-dependent dopamine transporter (Rattus norvegicus, UniProt P23977). In words: Inhibition of [3H]WIN-35428 binding at dopamine transporter was determined.
Experiment [13] is filed under the species Rattus norvegicus. Type of experiment: functional, Striatum.
Experiment [14] deals with Rattus norvegicus. In words: Degradation rate constant for dopamine transporter in striatum after intraventricular injection of 100 nmol of compound. Format: functional.
Experiment [15] has as its target Sodium-dependent serotonin transporter (Rattus norvegicus, UniProt P31652). In words: Inhibition of [3H]paroxetine binding at serotonin transporter was determined.
Experiment [16] concerns the target T1, Norepinephrine transporter (Rattus norvegicus, UniProt Q9WTR4). In words: Affinity for norepinephrine transporter determined by [3H]nisoxetine displacement.
The subject of experiment [17] is Rattus norvegicus. In words: Degradation rate constant for dopamine transporter in nucleus accumbens after intraventricular injection of 100 nmol of compound. Format: functional.
For experiment [18], the species on record is Rattus norvegicus. Format: functional, Cardiac ventricle.
The target in experiment [19] is T1, Norepinephrine transporter. In words: Inhibition of [3H]nisoxetine binding at norepinephrine transporter.
The species entered for experiment [20] is Mus musculus. In words: Antagonistic activity of nicotine-induced analgesia in mice was determined. Type of experiment: functional.
For experiment [21], the target named is Sodium-dependent serotonin transporter (Homo sapiens, UniProt P31645). In words: Inhibition of Serotonin (5-HT) reuptake using cloned human transporter was determined.
Sodium-dependent serotonin transporter (Homo sapiens, UniProt P31645), sequence (P31645 whole entry): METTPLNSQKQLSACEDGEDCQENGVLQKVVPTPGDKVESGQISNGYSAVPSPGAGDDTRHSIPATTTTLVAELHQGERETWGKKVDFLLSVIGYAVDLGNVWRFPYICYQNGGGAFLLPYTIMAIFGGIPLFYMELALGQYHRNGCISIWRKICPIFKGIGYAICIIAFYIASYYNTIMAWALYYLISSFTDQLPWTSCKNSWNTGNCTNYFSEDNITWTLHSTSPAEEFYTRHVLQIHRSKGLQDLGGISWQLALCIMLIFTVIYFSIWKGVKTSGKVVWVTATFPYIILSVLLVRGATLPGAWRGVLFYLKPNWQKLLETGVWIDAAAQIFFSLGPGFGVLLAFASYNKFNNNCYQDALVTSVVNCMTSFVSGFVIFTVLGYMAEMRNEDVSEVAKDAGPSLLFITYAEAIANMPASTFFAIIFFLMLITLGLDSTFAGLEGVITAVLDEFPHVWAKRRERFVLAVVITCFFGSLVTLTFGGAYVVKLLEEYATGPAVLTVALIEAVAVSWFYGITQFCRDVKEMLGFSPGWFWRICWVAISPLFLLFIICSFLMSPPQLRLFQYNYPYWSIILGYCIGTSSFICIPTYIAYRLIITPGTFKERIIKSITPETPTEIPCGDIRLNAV
Experiment [22] is filed under the species Mus musculus. In words: Antagonistic activity of nicotine-induced hypothermia in mice was determined. Format: functional.
The target in experiment [23] is Sodium-dependent dopamine transporter (Homo sapiens, UniProt Q01959). In words: Inhibition of dopamine (DA) reuptake using cloned human dopamine transporter was determined.
Sodium-dependent dopamine transporter (Homo sapiens, UniProt Q01959), sequence (Q01959 whole entry): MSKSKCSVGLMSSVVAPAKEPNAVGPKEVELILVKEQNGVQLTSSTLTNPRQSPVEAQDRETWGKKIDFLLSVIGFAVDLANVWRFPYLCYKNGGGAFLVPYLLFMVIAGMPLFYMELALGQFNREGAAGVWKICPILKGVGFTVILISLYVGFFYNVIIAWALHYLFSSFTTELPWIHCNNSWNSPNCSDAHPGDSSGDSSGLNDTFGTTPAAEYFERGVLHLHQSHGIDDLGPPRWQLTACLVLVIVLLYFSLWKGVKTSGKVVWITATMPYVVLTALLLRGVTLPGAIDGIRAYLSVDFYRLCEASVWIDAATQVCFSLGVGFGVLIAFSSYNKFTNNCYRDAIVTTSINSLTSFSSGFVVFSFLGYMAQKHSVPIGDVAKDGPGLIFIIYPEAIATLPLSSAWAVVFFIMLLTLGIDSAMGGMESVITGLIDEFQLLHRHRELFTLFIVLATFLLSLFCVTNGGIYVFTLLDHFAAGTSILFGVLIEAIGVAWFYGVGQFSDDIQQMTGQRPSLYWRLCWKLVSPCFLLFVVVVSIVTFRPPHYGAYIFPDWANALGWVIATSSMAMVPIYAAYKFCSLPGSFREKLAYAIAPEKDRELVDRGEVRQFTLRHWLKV
In experiment [24] the target is Sodium-dependent noradrenaline transporter (Homo sapiens, UniProt P23975). In words: Inhibition of Norepinephrine (NA) reuptake using cloned human Norepinephrine transporter was determined.
Sodium-dependent noradrenaline transporter, sequence (P23975 whole entry): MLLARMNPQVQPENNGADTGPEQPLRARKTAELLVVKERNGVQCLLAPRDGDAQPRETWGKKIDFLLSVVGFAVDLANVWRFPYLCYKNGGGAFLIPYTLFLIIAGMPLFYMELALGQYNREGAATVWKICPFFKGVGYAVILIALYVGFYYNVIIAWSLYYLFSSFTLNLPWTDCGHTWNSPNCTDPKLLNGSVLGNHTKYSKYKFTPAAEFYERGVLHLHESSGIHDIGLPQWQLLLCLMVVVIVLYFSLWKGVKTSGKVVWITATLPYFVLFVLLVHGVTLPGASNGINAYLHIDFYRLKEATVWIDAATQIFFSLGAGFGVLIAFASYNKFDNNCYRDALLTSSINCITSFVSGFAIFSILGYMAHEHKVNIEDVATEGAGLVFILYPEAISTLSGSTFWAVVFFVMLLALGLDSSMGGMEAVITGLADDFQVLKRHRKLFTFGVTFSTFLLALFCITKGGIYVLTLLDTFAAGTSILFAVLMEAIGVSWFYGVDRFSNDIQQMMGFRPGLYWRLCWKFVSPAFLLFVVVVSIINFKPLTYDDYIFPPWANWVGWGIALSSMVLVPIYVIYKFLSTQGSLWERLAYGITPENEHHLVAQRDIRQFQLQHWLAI

Where “and” joins values, the source holds several entries; their conditions need not be identical. Identical values can stand only once.

Sodium-dependent serotonin transporter (Rattus norvegicus, UniProt P31652), sequence (P31652 whole entry): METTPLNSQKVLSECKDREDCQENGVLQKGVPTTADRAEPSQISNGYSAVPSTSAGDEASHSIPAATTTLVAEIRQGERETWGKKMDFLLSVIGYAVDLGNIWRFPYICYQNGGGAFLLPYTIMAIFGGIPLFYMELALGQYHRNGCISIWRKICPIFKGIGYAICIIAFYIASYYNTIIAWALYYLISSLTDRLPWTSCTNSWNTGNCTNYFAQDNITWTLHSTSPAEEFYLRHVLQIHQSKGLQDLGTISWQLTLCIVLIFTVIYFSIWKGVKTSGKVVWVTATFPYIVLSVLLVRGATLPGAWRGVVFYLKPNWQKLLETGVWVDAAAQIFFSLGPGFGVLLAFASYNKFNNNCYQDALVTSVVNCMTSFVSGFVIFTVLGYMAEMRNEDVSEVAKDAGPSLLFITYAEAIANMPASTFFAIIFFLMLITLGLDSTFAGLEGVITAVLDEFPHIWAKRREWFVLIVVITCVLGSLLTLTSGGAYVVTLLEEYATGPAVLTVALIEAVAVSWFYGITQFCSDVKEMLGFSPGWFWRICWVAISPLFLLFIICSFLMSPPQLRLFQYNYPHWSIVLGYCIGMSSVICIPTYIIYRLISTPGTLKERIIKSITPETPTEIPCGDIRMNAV
T1 sequence (Q9WTR4 whole entry): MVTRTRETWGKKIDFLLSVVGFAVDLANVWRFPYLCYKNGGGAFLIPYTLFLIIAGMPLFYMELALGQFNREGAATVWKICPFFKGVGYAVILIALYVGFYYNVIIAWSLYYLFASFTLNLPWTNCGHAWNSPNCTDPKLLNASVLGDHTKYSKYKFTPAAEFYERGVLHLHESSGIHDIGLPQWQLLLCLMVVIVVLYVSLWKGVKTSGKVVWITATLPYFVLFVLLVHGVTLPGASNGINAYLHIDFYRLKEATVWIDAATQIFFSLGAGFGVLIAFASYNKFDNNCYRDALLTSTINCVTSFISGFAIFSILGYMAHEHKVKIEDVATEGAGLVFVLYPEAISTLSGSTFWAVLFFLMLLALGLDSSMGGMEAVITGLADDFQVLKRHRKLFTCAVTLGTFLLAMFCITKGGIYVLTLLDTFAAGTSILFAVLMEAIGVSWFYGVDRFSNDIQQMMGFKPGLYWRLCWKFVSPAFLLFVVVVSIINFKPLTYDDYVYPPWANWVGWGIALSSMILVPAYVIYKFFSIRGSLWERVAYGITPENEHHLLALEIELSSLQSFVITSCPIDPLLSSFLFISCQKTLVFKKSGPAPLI
Sodium-dependent dopamine transporter (Rattus norvegicus, UniProt P23977), sequence (P23977 whole entry): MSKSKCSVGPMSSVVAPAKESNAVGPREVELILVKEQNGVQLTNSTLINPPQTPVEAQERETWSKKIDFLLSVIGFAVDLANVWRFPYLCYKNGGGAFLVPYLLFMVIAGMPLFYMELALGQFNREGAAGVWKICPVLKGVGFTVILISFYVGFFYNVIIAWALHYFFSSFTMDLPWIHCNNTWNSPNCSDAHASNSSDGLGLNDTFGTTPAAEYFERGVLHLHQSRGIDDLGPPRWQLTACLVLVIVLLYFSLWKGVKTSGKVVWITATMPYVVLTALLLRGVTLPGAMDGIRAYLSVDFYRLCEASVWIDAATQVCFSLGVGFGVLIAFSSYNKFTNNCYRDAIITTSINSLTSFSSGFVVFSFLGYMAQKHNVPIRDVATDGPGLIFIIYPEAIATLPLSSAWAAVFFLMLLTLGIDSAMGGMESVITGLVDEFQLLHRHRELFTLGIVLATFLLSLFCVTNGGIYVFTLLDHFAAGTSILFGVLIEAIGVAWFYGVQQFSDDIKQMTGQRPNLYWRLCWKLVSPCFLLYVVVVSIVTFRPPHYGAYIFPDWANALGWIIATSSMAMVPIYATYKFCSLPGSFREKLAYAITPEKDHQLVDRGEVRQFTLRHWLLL

Regarding `COC(=O)[C@H]1[C@@H](OC(=O)c2ccccc2)C[C@@H]2CC[C@H]1N2C` [COCAINE], the figures for the 50% effective dose (ED50) in the experiment on Rattus norvegicus [1] and in the experiment with Rattus norvegicus [5] were 21 mg/kg and 2.5 mg/kg, respectively. The Change is 22% in the experiment listed under Rattus norvegicus [2]; -30% and -27% in the experiment listed under Rattus norvegicus [4]; -17% and -16% in the experiment filed under Rattus norvegicus [8]; 43% in the experiment filed under Rattus norvegicus [9]. In the experiment on Rattus norvegicus [3], the “Maximal locomotor activity (% of cocaine)” value is listed as 100%. Further, the Time in the experiment on Rattus norvegicus [6] was below 2 h. The Peak time in the experiment on Rattus norvegicus [7] is 0 min.

In the case of `CN1C2CC[C@@H]1C[C@H](c1ccc(Cl)cc1)C2C(=O)OCCc1ccc(N=S)cc1` (stereo not given in full), the T1/2 with Rattus norvegicus [10] and with Rattus norvegicus [11] was 50.4 h in each case. Besides, the half-inhibitory concentration (IC50) in experiment [12] was 5.3 nM; in [15] it was 7.1 nM; in [19], 1400 nM. For the same compound, the “Transporter production rate (r)” value in the experiment filed under Rattus norvegicus [13] is 202 fM/mg/day; in the experiment filed under Rattus norvegicus [18], 106 fM/mg/day. Further, the “Transporter deg rate const (k)” value in the experiment on Rattus norvegicus [14] was 0.34 day⁻¹; in the experiment on Rattus norvegicus [17], 0.3 day⁻¹. The Ki was found to be 0.65 nM in experiment [15] and 843 nM in [16].

With `COC(=O)C1C2CC[C@H](C[C@@H]1c1ccc(Cl)c(C)c1)N2C` (stereo not given in full), the figures for the 50% effective dose (ED50) with Rattus norvegicus [1] and with Rattus norvegicus [5] were 2.2 mg/kg and 0.21 mg/kg, respectively. Besides, the half-maximal inhibitory concentration (IC50) in experiment [12] is 0.81 nM; in [21] it was 1 nM; in experiment [15], 10.5 nM; in [23] it was 0.6 nM; in experiment [24], 0.8 nM; in experiment [19], 36.2 nM. For the same compound, the values for the AD50 in the experiment listed under Mus musculus [20] and in the experiment listed under Mus musculus [22] were 3.5 mM/kg and 1.5 mM/kg, respectively. Besides, in the experiment with Rattus norvegicus [3], the “Maximal locomotor activity (% of cocaine)” value is 75%. Further, the Ki was 0.95 nM in [15] and 2.8 nM in [16]. This compound displayed a Time in the experiment with Rattus norvegicus [6] above 4 h. This compound displayed a Peak time in the experiment on Rattus norvegicus [7] of 30 min.

As a reminder, the ED50 is the dose at which the effect has come halfway, by size or by number of responders. The low end stands for an effect at a small dose, the high end for a need for a large dose. By IC50 is commonly meant the midpoint of a concentration-inhibition curve. The low end stands for higher potency, the high end for lower potency. One may read the Ki as the dissociation constant of the complex between target and ligand, obtained from inhibition or displacement. Low readings indicate higher affinity, high ones lower affinity.
